Reference: article PMC8268581, “Identification of 3,4-Dihydro-2H,6H-pyrimido[1,2-c][1,3]benzothiazin-6-imine Derivatives as Novel Selective Inhibitors of Plasmodium falciparum Dihydroorotate Dehydrogenase” (International Journal of Molecular Sciences, 2021)

Tests used:
[1] = target: mammalian mitochondrial complexes II–III (Bos taurus, UniProt P00157+P35720+Q3T189+Q95123); assay: succinate-cytochrome c reductase (complexes II–III) activity assay; format: biochemical; settings: bovine heart mitochondria, range tested 0.0007 to 22.7 µM; read-out: IC50 Mammalian Mitochondrial CII–III
Description: (§1) Bovine heart mitochondria were prepared as previously described. The NADH-cytochrome c reductase (complexes I–III) and succinate-cytochrome c reductase (complexes II–III) activities were assayed in 384-well plates following an established protocol with small modifications. Complex I–III activity was assayed in a reaction mix containing 50 mM phosphate buffer pH 7.4, 2 mM KCN, 200 µM cytochrome c (cytochrome c from horse heart, Nacalai tesque), and 15 µg/mL mitochondria. Plates containing 1 µL serial dilutions of PfDHODH inhibitors were prepared and mixed with 38 µL of the reaction mix, as described above. The reaction was started by the addition of 5 µL of 2.6 mM NADH, and the assay was performed as described for PfDHODH, but at 550 nm and with 15 min of incubation. Complex II–III activity was assayed similarly to complex I–III activity but with 100 µM cytochrome c and 25 µg/mL mitochondria, and the reaction was started by 10 mM succinate. For both assays, DMSO and 5 µM ascochlorin were used as negative and positive controls, respectively. Assays were performed in triplicate.

[2] = Cytotoxicity assay, HDF (Cell Counting Kit-8); format: cell-based; settings: human dermal fibroblast (HDF) cells, normal human dermal fibroblasts
Description: (§2) Human dermal fibroblast cells (HDF, Zenbio, Inc., Durham, NC, USA) were cultured in Dulbecco’s Modified Eagle Medium/Nutrient Mixture F-12 medium (DMEM/F12, Gibco), human pancreatic carcinoma cells (PANC-1, DS Pharma Biomedical, Co., Ltd.) were cultured in DMEM (Gibco), and human colorectal adenocarcinoma cells (DLD-1, Taiho Pharmaceutical Company) were cultured in RPMI-1640 medium (FUJIFILM Wako Pure Chemicals). The culture mediums were supplemented with 10% (v/v) heat-inactivated fetal bovine serum (Gibco) and the cells were maintained at 37 °C under 5% CO2.
(§3) HDF, PANC-1, and DLD-1 were seeded at 2.5 × 10^4 cells/well on a 96-well plate and incubated at 37 °C under 5% CO2 overnight. The cells were then washed with PBS and the medium was replaced with 99 µL of fresh media. Then, 1 µL of the compounds or DMSO was added to the respective wells. As controls, wells containing 1% (v/v) DMSO in column 1 and wells containing only the culture medium in column 12 were used as the negative and positive controls, respectively. After 48 h of incubation, the cells were washed with PBS, and 99 µL of fresh media was replaced, followed by the addition of 10 µL of Cell Counting Kit-8 (Dojindo) to each well. After 3 h of incubation, the absorbance was measured at 450 nm using a SpectraMax®® Paradigm®® Multi-Mode microplate Reader. The calculation of cell viability in the test well was based on the absorbance of control wells according to the manufacturer’s protocol. The mean of quadruplet values was used to calculate the CC50 using GraphPad Prism 8.0 software.

[3] = Cytotoxicity assay, PANC-1 (Cell Counting Kit-8); format: cell-based; settings: PANC-1 human pancreatic carcinoma cells
Description: as §2, §3

[4] = system: P. falciparum 3D7; assay: In vitro antimalarial assay (PfLDH/diaphorase); format: cell-based; settings: Plasmodium falciparum, growth inhibition, 72 h, 0.0003 to 10 µM, read-out: EC50 Pf3D7
Description: This assay was conducted using human red blood cells (RBC) following the guidelines of the ethics committee of Nagasaki University (permission no. 19). Human RBC was obtained from the Japanese Red Cross Society. The P. falciparum 3D7 strain was cultured in 2% hematocrit type O human RBC in RPMI-1640 medium (Gibco) supplemented with 23.8 mM sodium bicarbonate (Wako), 50 mg/L hypoxanthine (Wako), 25 mg/L gentamycin (Sigma), and 0.5% (w/v) AlbuMAX®® II (Gibco) under a 5% O2, 5% CO2, and 90% N2 atmosphere at 37 °C. Parasites were synchronized with 5% (w/v) D-sorbitol (Wako).
Synchronized ring-stage parasites at 0.3% parasitemia and 2% hematocrit were cultured in a 384-well plate at 25 µL with test compounds at a final concentration in the range of 0.0003 to 10 µM with a fixed DMSO concentration of 0.4% (v/v). Parasite growth was monitored by the diaphorase-coupled P. falciparum lactate dehydrogenase (PfLDH) assay, as previously described. After 72 h, 70 µL of the assay solution (150 mM lithium L-lactate (Wako), 0.05 mg/mL 3-acetylpyridine adenine dinucleotide (Oriental Yeast Co., Ltd., Tokyo, Japan), 0.2 mg/mL nitro blue tetrazolium (Wako), 1 unit/mL diaphorase, and 100 mM Tris-HCl pH 8.0) were mixed with the parasite culture and incubated at room temperature for 40 min, and the generated nitro blue formazan was measured at 650 nm using a SpectraMax®® Paradigm®® Multi-Mode Microplate Reader. […] The EC50 was calculated using GraphPad Prism 8.0 software from the mean of quadruplets values.

[5] = Cytotoxicity assay, DLD-1 (Cell Counting Kit-8); format: cell-based; settings: DLD-1 human colorectal adenocarcinoma cells
Description: as §2, §3

[6] = target: T1, HsDHODH (Homo sapiens, UniProt Q02127); assay: HsDHODH counter-assay; format: biochemical; settings: purified recombinant HsDHODH, tested at 4.5 µM; read-out: IC50 DHODH Hs
T1 construct: made in house
T1 sequence (Q02127 whole entry): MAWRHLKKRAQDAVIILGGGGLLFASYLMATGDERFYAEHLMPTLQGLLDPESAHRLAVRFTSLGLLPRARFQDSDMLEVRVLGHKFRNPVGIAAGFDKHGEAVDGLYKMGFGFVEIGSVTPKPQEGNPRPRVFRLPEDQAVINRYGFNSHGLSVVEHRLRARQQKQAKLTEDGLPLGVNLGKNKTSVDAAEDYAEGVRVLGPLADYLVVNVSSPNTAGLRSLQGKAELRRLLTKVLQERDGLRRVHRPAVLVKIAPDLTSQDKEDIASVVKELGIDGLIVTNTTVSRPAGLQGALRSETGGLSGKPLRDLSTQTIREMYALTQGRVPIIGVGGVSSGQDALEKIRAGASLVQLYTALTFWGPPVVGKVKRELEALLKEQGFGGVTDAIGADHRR
Description: Selected hit compounds from PfDHODH screening were tested for potential inhibition against HsDHODH at 4.5 µM. The HsDHODH used in this study was purified as previously reported. The HsDHODH assay was performed similarly to that for PfDHODH, but in an assay mix consisting of 50 mM Tris-HCl pH 8.0, 0.1% (v/v) Triton X-100, 2 mM potassium cyanide (KCN, Wako), 60 µM dUQ, and 120 µM DCIP, with the reaction started by the addition of 200 µM L-DHO (final concentration) in triplicate. For this assay, DMSO was used as a negative control and 10 µM of lapachol was used as a positive control (100% inhibition). The relative inhibition was calculated as described above.

[7] = target: T2, PfDHODH (Plasmodium falciparum, UniProt Q08210); assay: PfDHODH inhibition assay (DCIP end-point, 384-well); format: biochemical; settings: recombinant tag-free PfDHODH, 20 min, serial dilutions 0.0007-22.7 µM; read-out: IC50 DHODH Pf
T2 construct: encoding amino acid residues 158 to 569 fused to a His6-SUMO tag in its N-terminus; His6-SUMO (N, cleaved yes); made in house; host or cells: E. coli BL21 Star (DE3), pETSUMO/PfDHODH
T2 sequence (Q08210 158-569): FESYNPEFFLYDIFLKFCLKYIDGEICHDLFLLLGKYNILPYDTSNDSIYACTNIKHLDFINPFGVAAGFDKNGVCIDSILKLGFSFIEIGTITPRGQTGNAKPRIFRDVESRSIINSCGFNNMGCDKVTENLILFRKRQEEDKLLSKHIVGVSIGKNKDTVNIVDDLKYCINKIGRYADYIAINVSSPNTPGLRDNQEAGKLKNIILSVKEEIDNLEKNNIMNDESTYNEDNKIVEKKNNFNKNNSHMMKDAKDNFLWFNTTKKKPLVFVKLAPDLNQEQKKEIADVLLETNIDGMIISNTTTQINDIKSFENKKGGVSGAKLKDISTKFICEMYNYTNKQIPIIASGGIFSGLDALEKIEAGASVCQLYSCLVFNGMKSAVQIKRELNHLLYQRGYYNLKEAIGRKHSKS
Description: The screening of 40,400 compounds was conducted in 384-well plates by adapting the end-point assay reported before. First, 1 µL of 200 µM compound was transferred into 384-well plates using a Benchtop Multi-Pipetter EDR-384SR (Biotech Co., Ltd., Tokyo, Japan). […] Next, 38 µL of assay mix (100 mM HEPES-NaOH pH 7.5, 5% (v/v) glycerol, 150 mM NaCl, 0.05% (v/v) Triton X-100, 15 µM decylubiquinone (dUQ, Sigma), 120 µM 2,6-dichlorophenolindophenol (DCIP, Sigma), and 20 nM PfDHODH) were dispensed into all wells and mixed at 600 rpm for 1 min by a MixMate®® (Eppendorf). The reaction was started by the addition of 5 µL of 1.8 mM L-DHO (Sigma) as the substrate and mixed as described above for 20 s. The absorbance at 600 nm was recorded using a SpectraMax®® Paradigm®® Multi-Mode Microplate Reader (Molecular Devices) before (t0) and after 20 min (t20) incubation at room temperature. The readings at t0 were subtracted from t20, and PfDHODH inhibition was calculated as the inhibition relative to the negative and positive controls in a single-point assay. Hits were defined as compounds inhibiting more than 50% of PfDHODH activity at 4.5 µM. The quality of the screening system was evaluated by calculating statistical parameters: Z′-factor, S/N, S/B, SW, and CV, as previously reported. The IC50 values of the hit compounds were determined using the same assay system containing serial dilutions of each compound in triplicates (22.7, 6.8, 2.27, 0.68, 0.227, 0.068, 0.023, 0.007, 0.002, 0.0007 µM) using GraphPad Prism 8.0 software (GraphPad Software Inc., San Diego, CA, USA).

[8] = target: mammalian mitochondrial complexes I–III (Bos taurus, UniProt P00157+P03887+P17694+P42026); assay: NADH-cytochrome c reductase (complexes I–III) activity assay; format: biochemical; settings: bovine heart mitochondria, range tested 0.0007 to 22.7 µM; read-out: IC50 Mammalian Mitochondrial CI–III
Description: as §1

| SMILES | IC50 [1] [µM] | EC50 at 48 h [2] [µM] | EC50 at 48 h [3] [µM] | EC50 [4] [µM] | EC50 at 48 h [5] [µM] | IC50 [6] [µM] | IC50 [7] [nM] | IC50 [8] [µM] |
| --- | --- | --- | --- | --- | --- | --- | --- | --- |
| N=C1Sc2cc(-c3cccc4ccccc34)ccc2C2=NCCCN12 [Compound 2] | > 22.7 | > 10 | > 10 | > 10 | > 10 | > 4.5 | 850 ± 50 | 13.9 ± 2.14 |
| N=C1Sc2ccc(-c3ccccc3)cc2C2=NCCCN12 [Compound 9] | > 22.7 | > 10 | > 10 | > 10 | > 10 | > 4.5 | 760 ± 80 | > 22.7 |
| N=C1Sc2cc3ccccc3cc2C2=NCCCN12 [Compound 11, 2,3,4,6-tetrahydro-7-thia-1,5-diazatetraphen-6-imine] | > 22.7 | > 10 | > 10 | > 10 | > 10 | > 4.5 | 6420 ± 90 | > 22.7 |
| N=C1Sc2cc(-c3ccc(C(N)=O)cc3)ccc2C2=NCCCN12 [Compound 16] | > 22.7 | > 10 | > 10 | > 10 | > 10 | > 4.5 | 1820 ± 80 | > 22.7 |
| CC(=O)Nc1cccc(-c2ccc3c(c2)SC(=N)N2CCCN=C32)c1 [Compound 23] | > 22.7 | > 10 | > 10 | > 10 | > 10 | > 4.5 | 1850 ± 190 | > 22.7 |
| CS(=O)(=O)Nc1cccc(-c2ccc3c(c2)SC(=N)N2CCCN=C32)c1 [Compound 24] | > 22.7 | > 10 | > 10 | > 10 | > 10 | > 4.5 | 1940 ± 70 | > 22.7 |
| CC(=O)NCCCCCOc1cccc(-c2ccc3c(c2)SC(=N)N2CCCN=C32)c1 [Compound 26] | > 22.7 | > 10 | > 10 | > 10 | > 10 | > 4.5 | 3490 ± 210 | > 22.7 |
| CC(=O)Nc1ccc2c(c1)SN1CCCN=C21 [Compound 28] | > 22.7 | > 10 | > 10 | > 10 | > 10 | > 4.5 | 18500 ± 400 | > 22.7 |
| FC(F)(F)c1ccc2c(c1)SN1CCCN=C21 [Compound 29] | > 22.7 | > 10 | > 10 | > 10 | > 10 | > 4.5 | 9710 ± 290 | > 22.7 |
| c1cncc(-c2ccc3c(c2)SN2CCCN=C32)c1 [Compound 35] | > 22.7 | > 10 | > 10 | > 10 | > 10 | > 4.5 | 1480 ± 70 | > 22.7 |
| Oc1ccc(-c2ccc3c(c2)SN2CCCN=C32)cc1 [Compound 38] | > 22.7 | > 10 | > 10 | > 10 | > 10 | > 4.5 | 1810 ± 10 | > 22.7 |
| Oc1cccc(-c2ccc3c(c2)SN2CCCN=C32)c1 [Compound 41] | > 22.7 | > 10 | > 10 | > 10 | > 10 | > 4.5 | 1440 ± 50 | > 22.7 |
